Patent US20190209650A1, “METHOD TO IMPROVE THE EFFECTIVENESS OF ANTI-CANCER THERAPIES BY EXPOSING CANCER CELLS TO AN INFLAMMATORY STIMULUS PRIOR TO TREATMENT” (priority 2016, published 2019)

Test system: SW620 colorectal cancer cell line
Assay: Flow cytometry of EpCAM positive cells and cancer stem cell (CD44+CD133-) subpopulation after incubation with cytokines
Assay type: cell-based, human
Details: for % Gated, R4 (CD44FITC, CD133 PE) / % Total, R4 (CD44FITC, CD133 PE): population R4 & R14 & R2 & R1; for % Gated, R5 (CD44FITC, CD133 PE) / % Total, R5 (CD44FITC, CD133 PE): population R5 & R14 & R2 & R1; for % Gated, R6 (CD44FITC, CD133 PE) / % Total, R6 (CD44FITC, CD133 PE): population R6 & R14 & R2 & R1; for % Gated, R7 Cancer Stem Cell (CSC) (CD44+CD133-) / % Total, R7 Cancer Stem Cell (CSC) (CD44+CD133-): population R7 & R14 & R2 & R1; for % Gated, R8 (CD44FITC, EpCAMefluor710) / % Total, R8 (CD44FITC, EpCAMefluor710): population R8 & R14 & R2 & R1; for % Gated, R9 EpCAM positive Cells (CD44FITC, EpCAMefluor710) / % Total, R9 EpCAM positive Cells (CD44FITC, EpCAMefluor710): population R9 & R14 & R2 & R1; for % Gated, R10 EpCAM positive Cells (CD44FITC, EpCAMefluor710) / % Total, R10 EpCAM positive Cells (CD44FITC, EpCAMefluor710): population R10 & R14 & R2 & R1; for % Gated, R11 (CD44FITC, EpCAMefluor710) / % Total, R11 (CD44FITC, EpCAMefluor710): population R11 & R14 & R2 & R1
Experimental: This number returned to near baseline 21% at 48 hours. […] This change was transient, occurring within 24 hours and rapidly returning to baseline.
The data from the scatter plots of FIGS. 1A-1H, 2A-2H, and 3A-3H are reproduced below in Tables 1-3.
Based on the above data of potentiating the effectiveness of chemotherapy by exposing cancer cells to specific cytokines such as HGF and or Il-6 within a time limited fashion, the mechanism behind this ability to sensitize cancer cells may not simply be triggering cellular proliferation. Specific cytokine exposures can transiently cause a cancer cell population to differentiate away from a more stem cell enriched, mesenchymal phenotype towards a more differentiated, epithelial cell population more sensitive to the effects of anti-cancer therapies (see Tables 1-3).
In particular, exposure to a control population of SW620 colorectal cancer cell line to HGF at a concentration of 10 ng per ml for 24 hours caused the control putative stem cell population (CD44+/CD133−) to drop from 33% at baseline (see Table 1, R7 region, CD 44 positive/CD133 negative) to 1% (see Table 2, R7, region CD 44 positive/CD133 negative). This drop was transient, as exposure to the same cell line for 48 hours of HGF at 10 ng per ml transitioned the phenotypic distribution back towards a stem cell enriched phenotype with 23% putative stem cells (see Table 3, R7 region, CD 44 positive/CD133 negative).

Substance: PDGF Beta: Platelet derived growth factor BB
- % Gated, R4 (CD44FITC, CD133 PE) (0 hour incubation): 49.7%
- % Total, R4 (CD44FITC, CD133 PE) (0 hour incubation): 46.5%
- % Gated, R5 (CD44FITC, CD133 PE) (0 hour incubation): 2.45%
- % Total, R5 (CD44FITC, CD133 PE) (0 hour incubation): 2.29%
- % Gated, R6 (CD44FITC, CD133 PE) (0 hour incubation): 10.7%
- % Total, R6 (CD44FITC, CD133 PE) (0 hour incubation): 9.97%
- % Gated, R7 Cancer Stem Cell (CSC) (CD44+CD133-) (0 hour incubation): 37.3%
- % Total, R7 Cancer Stem Cell (CSC) (CD44+CD133-) (0 hour incubation): 34.9%
- % Gated, R8 (CD44FITC, EpCAMefluor710) (0 hour incubation): 4.94%
- % Total, R8 (CD44FITC, EpCAMefluor710) (0 hour incubation): 4.62%
- % Gated, R9 EpCAM positive Cells (CD44FITC, EpCAMefluor710) (0 hour incubation): 53.5%
- % Total, R9 EpCAM positive Cells (CD44FITC, EpCAMefluor710) (0 hour incubation): 50%
- % Gated, R10 EpCAM positive Cells (CD44FITC, EpCAMefluor710) (0 hour incubation): 38.8%
- % Total, R10 EpCAM positive Cells (CD44FITC, EpCAMefluor710) (0 hour incubation): 36.3%
- % Gated, R11 (CD44FITC, EpCAMefluor710) (0 hour incubation): 2.33%
- % Total, R11 (CD44FITC, EpCAMefluor710) (0 hour incubation): 2.18%
- % Gated, R4 (CD44FITC, CD133 PE) (24 h incubation): 36.2%
- % Total, R4 (CD44FITC, CD133 PE) (24 h incubation): 32.4%
- % Gated, R5 (CD44FITC, CD133 PE) (24 h incubation): 8.6%
- % Total, R5 (CD44FITC, CD133 PE) (24 h incubation): 7.7%
- % Gated, R6 (CD44FITC, CD133 PE) (24 h incubation): 32.2%
- % Total, R6 (CD44FITC, CD133 PE) (24 h incubation): 28.8%
- % Gated, R7 Cancer Stem Cell (CSC) (CD44+CD133-) (24 h incubation): 22.6%
- % Total, R7 Cancer Stem Cell (CSC) (CD44+CD133-) (24 h incubation): 20.3%
- % Gated, R8 (CD44FITC, EpCAMefluor710) (24 h incubation): 4.94%
- % Total, R8 (CD44FITC, EpCAMefluor710) (24 h incubation): 4.42%
- % Gated, R9 EpCAM positive Cells (CD44FITC, EpCAMefluor710) (24 h incubation): 45.3%
- % Total, R9 EpCAM positive Cells (CD44FITC, EpCAMefluor710) (24 h incubation): 40.6%
- % Gated, R10 EpCAM positive Cells (CD44FITC, EpCAMefluor710) (24 h incubation): 47.4%
- % Total, R10 EpCAM positive Cells (CD44FITC, EpCAMefluor710) (24 h incubation): 42.5%
- % Gated, R11 (CD44FITC, EpCAMefluor710) (24 h incubation): 3.22%
- % Total, R11 (CD44FITC, EpCAMefluor710) (24 h incubation): 2.88%
- % Gated, R4 (CD44FITC, CD133 PE) (48 h incubation): 40.1%
- % Total, R4 (CD44FITC, CD133 PE) (48 h incubation): 27.6%
- % Gated, R5 (CD44FITC, CD133 PE) (48 h incubation): 7.5%
- % Total, R5 (CD44FITC, CD133 PE) (48 h incubation): 5.16%
- % Gated, R6 (CD44FITC, CD133 PE) (48 h incubation): 27.4%
- % Total, R6 (CD44FITC, CD133 PE) (48 h incubation): 18.9%
- % Gated, R7 Cancer Stem Cell (CSC) (CD44+CD133-) (48 h incubation): 25.6%
- % Total, R7 Cancer Stem Cell (CSC) (CD44+CD133-) (48 h incubation): 17.6%
- % Gated, R8 (CD44FITC, EpCAMefluor710) (48 h incubation): 24.4%
- % Total, R8 (CD44FITC, EpCAMefluor710) (48 h incubation): 16.8%
- % Gated, R9 EpCAM positive Cells (CD44FITC, EpCAMefluor710) (48 h incubation): 31.8%
- % Total, R9 EpCAM positive Cells (CD44FITC, EpCAMefluor710) (48 h incubation): 21.9%
- % Gated, R10 EpCAM positive Cells (CD44FITC, EpCAMefluor710) (48 h incubation): 23.5%
- % Total, R10 EpCAM positive Cells (CD44FITC, EpCAMefluor710) (48 h incubation): 16.2%
- % Gated, R11 (CD44FITC, EpCAMefluor710) (48 h incubation): 21.1%
- % Total, R11 (CD44FITC, EpCAMefluor710) (48 h incubation): 14.5%
